Experimental findings from article PMC10837422, “Early onset diagnosis in Alzheimer’s disease patients via amyloid-β oligomers-sensing probe in cerebrospinal fluid” (Nature Communications, 2024) are described below.

Experiment [1] addresses T1, Amyloid-β 1–42 (Aβ1–42) oligomers (Homo sapiens, UniProt P05067).
T1 construct: gene APP; full-length Aβ1–42 synthetic peptide, oligomers
The experiment can be described thus: fluorescence saturation titration; hexamer fragment mapping assay. Format: binding.

Experiment [2] deals with T2, Amyloid-β 1–42 (Aβ1–42) fibrils (Homo sapiens, UniProt P05067).
T2 construct: gene APP
The experiment can be described thus: ThT fluorescence turn-on during Aβ[…] self-assembly (reference dye). The format is binding.

T1 sequence (P05067 672-713): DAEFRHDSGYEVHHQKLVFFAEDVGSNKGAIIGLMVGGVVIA
T2 sequence (P05067 672-713): as above

The Kd is the equilibrium constant for the complex coming apart. High values mean a looser complex, low ones a tighter complex. In turn, `CC(C)CC1=[O+][B-](F)(F)OC(/C=C/c2ccc3nc(N(C)C)ccc3c2)=C1` [Q-OB] returned a Kd in experiment [1] of 303 ± 94.7 nM.
As to `Cc1ccc2c(c1)sc(-c1ccc(N(C)C)cc1)[n+]2C` [ThT, thioflavin T], the “ThT fluorescence turn-on during Aβ1-42 self-assembly (reference dye)” value in experiment [2] is listed as “matured Aβ aggregates formation, since ThT specifically detects cross-β-sheet via hydrophobic binding”.
